Source: PubChem BioAssay AID179 (DTP/NCI, 2004)
pEC50, pIC50: −log10 of the molar value. The source made the active and inactive calls.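 Rule for the calls: active = compounds giving half or more protection of infected cells from virus-caused growth loss, again on retest; inactive = the rest.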

Test system: CEM cells HIV-1 protection, formazan growth assay
Assay: NCI AIDS Antiviral Assay
Details: for pIC50: measured here: growth of uninfected CEM cells
Procedure, shortened: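 Five concentrations of each compound were applied to infected and uninfected human CEM cells. Protection from HIV-1 was judged from growth measured with a soluble formazan assay.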

## NC1=NS(=O)(=O)N=C(N)C1=Cc1ccc([N+](=O)[O-])o1
  pEC50: < 3.06
  pIC50: 5.31

## CCN(CC)C(=O)N[C@@H](Cc1ccccc1)C(=O)NC
  pEC50: < 3.70
  pIC50: < 3.70

## CCCC(=O)Oc1ccc2c(C)cc(=O)oc2c1
  pEC50: < 3.70
  pIC50: < 3.70

## COC(=O)c1cc(=O)nc2n1C1OC(CO)C(O)C1O2 (centres undefined)
  pEC50: < 3.70
  pIC50: < 3.70

## Cc1cc(C)nc(NS(=O)(=O)c2ccc(NC(=O)c3ccc(Cl)c4c(Nc5ccc(S(=O)(=O)Nc6cc(C)on6)cc5)c5ccccc5nc34)cc2)n1
  pEC50: < 4.33
  pIC50: < 4.33

## c1ccc(Nc2nnc(CCCCCCCCc3nnc(Nc4ccccc4)o3)o2)cc1
  pEC50: < 3.70
  pIC50: 3.97

## CCOC(=O)C1=C(C)N(Cc2ccccc2)C(C)=C(C(=O)OCC)C1c1ccccc1O
  pEC50: < 4.78
  pIC50: < 4.78

## COC(=O)CP(=O)(OCC(F)(F)F)OCC(F)(F)F
  pEC50: < 3.10
  pIC50: 3.36

## CC(CCc1nc2ccccc2[nH]1)C1CCC2C3CC[C@@H]4C[C@H](O)CC[C@]4(C)C3CC[C@]12C (some centres undefined)
  pEC50: < 4.30
  pIC50: < 4.30

## CC(=O)OC1CN(OCC2OC(OC(C)=O)C(OC(C)=O)C(OC(C)=O)C2OC(C)=O)CC(OC(C)=O)C1OC(C)=O (centres undefined)
  pEC50: < 3.70
  pIC50: < 3.70

## CC(=O)NC1Cc2ccccc2C1=O (centres undefined)
  pEC50: < 3.70
  pIC50: < 3.70

## Cn1c(=O)sc2cc(C(=S)N3CCCCC3)ccc21
  pEC50: < 3.70
  pIC50: 3.97

## CC(=O)O[C@H]1C#C/C=C\C#CC[C@@H]2C(=O)N[C@@H]12
  pEC50: < 4.70
  pIC50: 5.99

## COc1ccc(/C=C(/NC(=O)c2ccccc2)C(=O)Nc2ccccc2)cc1OC
  pEC50: < 3.70
  pIC50: < 3.70

## O=C(Nc1cccc([N+](=O)[O-])c1)c1n[nH]n(-c2cccc([N+](=O)[O-])c2)c1=O
  pEC50: < 3.70
  pIC50: < 3.70

## CC(=C(C(=O)O)C(=O)O)c1cc(-c2cccs2)cc(-c2ccc(Cl)cc2)c1O
  pEC50: < 3.70
  pIC50: 4.91

## Cn1ccnc1Sc1c([N+](=O)[O-])ncn1C
  pEC50: < 2.98
  pIC50: 5.10

## Cc1nc2c(O)cc(Cl)c(O)c2nc1C
  outcome: inactive

## CCOC(=O)C1CCn2c(nc3c2c(=O)n(C)c(=O)n3C)S1 (centres undefined)
  outcome: inactive

## CCOC(=O)C(=Cc1ccc(Oc2ccccc2)cc1)C(=O)OCC
  pEC50: < 4.95
  pIC50: < 4.95

## CCOC(=O)C(=O)N=Nc1c(O)[nH]c2ccccc12
  pEC50: < 3.70
  pIC50: < 3.70

## COC1/C=C/OC2(C)Oc3c(C)c(O)c4c(O)c(c(C=NN5C(C)CN(Cc6ccc(Cl)cc6)CC5C)c(O)c4c3C2=O)NC(=O)/C(C)=C/C=C/C(C)C(O)C(C)C(O)C(C)C(OC(C)=O)C1C (centres undefined)
  pEC50: < 3.70
  pIC50: 5.21

## COc1cc2c(c(OC)c1OC)CCNC2C1=C(O)COC1=O (centres undefined)
  outcome: inactive

## Nc1nc(C(=O)O)c(N)c(=O)[nH]1
  pEC50: < 3.70
  pIC50: < 3.70

## CCCCCCC(C)c1ccc2c(c1)C(=O)c1nc3ccncc3c(=O)n1-2 (centres undefined)
  pEC50: < 3.70
  pIC50: 6.02

## Nc1c(-c2ccccc2[N+](=O)[O-])nc2ccccn12
  pEC50: < 3.29
  pIC50: 3.92

## CC(C)(C)OC(=O)NC(Cc1ccccc1)C(=O)OCN1C(=O)C2C3C=CC(C2C1=O)C1C2C(=O)N(COC(=O)C(Cc4ccccc4)NC(=O)OC(C)(C)C)C(=O)C2C31 (centres undefined)
  pEC50: < 4.00
  pIC50: 4.81

## C[Si]1(C)CCCSC1
  pEC50: < 3.70
  pIC50: < 3.70

## CC(=O)C1C(=O)C(=O)N(c2ccc(Br)cc2)C1=O (centres undefined)
  outcome: inactive

## Cc1cc(C)nc(NS(=O)(=O)c2ccc(NC(=O)c3cccnc3Nc3cccc(Cl)c3)cc2)n1
  outcome: inactive

## CC(=O)O[C@]1(C)OC(=O)[C@@H](CC(C)C)N1[N+](=O)[O-]
  outcome: inactive

## COC(=O)c1ccc(C(=O)OC)c2nc3cc(C)ccc3nc12
  pEC50: < 3.66
  pIC50: < 3.66

## COC(=O)C1=COC(C)C2CN3CCc4c([nH]c5cc(OC)ccc45)C3CC12 (centres undefined)
  pEC50: < 4.33
  pIC50: < 4.33

## S=C1SC2(CCCC2)NC2=C1CCC2
  pEC50: < 3.90
  pIC50: < 3.90

## CCCc1nc2c(nc1C)C(=O)C=CC2=O
  pEC50: < 3.08
  pIC50: 4.77

## COc1ccc(OC)c(NC(=O)C2=C(C)NC(C)=C(C(=O)Nc3cc(OC)ccc3OC)C2c2ccccc2)c1
  outcome: inactive

## C=CCn1cc(C(=O)NC(=O)NCCCCCOC(=O)CCCCCCCCCCC(=O)OCCCCCNC(=O)NC(=O)c2cn(CC=C)c(=O)n(C)c2=O)c(=O)n(C)c1=O
  pEC50: < 5.24
  pIC50: < 5.24

## C/C(O)=C(\N=O)C(=O)NCc1ccccc1
  pEC50: < 2.95
  pIC50: < 2.95

## CC(SSc1ccc(C(C)(C)C)cc1)c1ccccc1 (centres undefined)
  pEC50: < 3.70
  pIC50: 5.07

## Cc1c(S(=O)(=O)c2ccccc2)c(N)n(Cc2ccccc2)c1C
  pEC50: < 3.70
  pIC50: 4.13

## C/C(=N\NC(=S)N(C)CCN(C)C(=S)N/N=C(\C)c1ccccn1)c1ccccn1
  pEC50: < 3.70
  pIC50: 5.61

## O=C(O)c1onc2ccccc12
  pEC50: < 2.82
  pIC50: 3.00

## O=C1C2CCCCC2C(=O)N1n1c(Cc2ccccc2)n[nH]c1=O (centres undefined)
  pEC50: < 3.70
  pIC50: < 3.70

## CN(C)CC/C(=N\Nc1c(Cl)cccc1Cl)c1ccccc1
  outcome: inactive

## O=[N+]([O-])c1ccc(C2=Nc3ccccc3S(=O)C(c3ccccc3)C2)cc1 (centres undefined)
  pEC50: < 5.14
  pIC50: < 5.14

## O=C(/C=C/c1ccc(Cl)c(Cl)c1)C1CCC(Cl)CC1 (centres undefined)
  pEC50: < 5.20
  pIC50: < 5.20

## O=c1[nH]c(O)c(/C=N/C(=S)Nc2ccc(S(=O)(=O)Nc3nccs3)cc2)c(=O)[nH]1
  pEC50: < 3.70
  pIC50: < 3.70

## CSC(=S)Nc1cc(C)cc(C)n1
  pEC50: < 3.70
  pIC50: < 3.70

## CC(C)N(c1cc2c(cc1F)c(=O)c(C(=O)O)cn2-c1ccc(N2CCN(C)CC2)cn1)C(C)C
  pEC50: < 3.70
  pIC50: < 3.70

## O=C(CCc1ccc(O)c(O)c1)NCCc1cc(O)c(O)c(O)c1
  pEC50: < 3.70
  pIC50: 5.30

## c1ccc2c(c1)CCN(NCCN1CCCC1)C2
  outcome: inactive

## COC(=O)C1=C(C(=O)OC)SC(C(C(=O)OC)=C2SC3=C(CCCC3)S2)S1
  outcome: inactive

## O=c1[nH]c(=O)n(C2CC(O)C(CO)O2)cc1C#Cc1ccc(F)cc1 (centres undefined)
  pEC50: < 3.14
  pIC50: < 3.14

## CC(=O)N=C1N(/C=C2\C(=O)Oc3ccccc3C2=O)C(=O)/C(=C/c2ccc3c(c2)OCO3)N1C
  pEC50: < 3.70
  pIC50: < 3.70

## COC(=O)[C@@H](Cc1ccccc1)NNC(=O)OC(C)(C)C
  pEC50: < 3.07
  pIC50: 3.36

## CCc1nc2ccc(C(F)(F)F)cc2[nH]c1=O
  pEC50: < 3.70
  pIC50: 3.98

## CC(C)n1c(=O)[nH]n(-c2ccccc2)c1=O
  pEC50: < 3.70
  pIC50: < 3.70

## Cc1ccc(NC(=O)SCCC(=O)O)cc1
  outcome: inactive

## CC1(C)OC2C3CC(C2O1)C1C3C2(Cl)CC1(Cl)C(Cl)=C2Cl (centres undefined)
  outcome: inactive

## C/C(Cl)=N\OC(=O)Nc1ccc([N+](=O)[O-])cc1
  pEC50: < 3.70
  pIC50: 4.98

## CC(Oc1ccc(OCC2CCCCC2)cc1)C(=O)NCCO (centres undefined)
  pEC50: < 3.53
  pIC50: 4.38

## O=[N+]([O-])c1ccc2c(c1)NP(=S)(Oc1ccccc1)N2 (centres undefined)
  pEC50: < 3.22
  pIC50: 4.09

## CCN(CC)C(=S)N/N=C/c1cc(OC)ccc1O
  pEC50: < 3.70
  pIC50: 5.00

## CC[C@@]1(OS(=O)(=O)O)CCC2C3CC=C4CC(O)CC[C@]4(C)C3CC[C@@]21C (some centres undefined)
  pEC50: 3.97
  pIC50: 3.65

## O=C(Nc1ccccc1)c1c(O)[nH]c(=S)[nH]c1=O
  pEC50: 4.95
  pIC50: 4.67

## CN=C(NC#N)NCc1ccccc1
  pEC50: < 2.88
  pIC50: 2.92

## CC(Nc1ccc(Cl)cc1)c1ccncc1 (centres undefined)
  pEC50: < 3.70
  pIC50: 4.14

## c1ccc(COC2(OCc3ccccc3)CC3OC2C2NN=NC32)cc1 (centres undefined)
  pEC50: < 3.85
  pIC50: 5.01

## COc1cc(Nc2cnc3ccc(N)cc3n2)cc(OC)c1OC
  pEC50: < 3.26

## Cc1cc(NCCCCCCNc2cc(C)nc3ccc(Cl)cc23)c2cc(Cl)ccc2n1
  pEC50: < 5.16
  pIC50: < 5.16

## Nc1ncc(C=O)c(NCC2(CO)CCC2)n1
  pEC50: < 3.70
  pIC50: 4.68

## COC(=O)C(Cc1nc2ccccc2[nH]c1=O)C(=O)C(=O)Nc1ccc(OC)cc1[N+](=O)[O-] (centres undefined)
  pEC50: < 3.40
  pIC50: < 3.40

## CCOC(=O)c1c(CN2CCNCC2)nc2ccc(Cl)cc2c1-c1ccccc1
  pEC50: < 4.20
  pIC50: 4.47

## Cc1cc(N(CCC#N)CCC#N)ccc1/C=C(\NC(=O)/C=C/c1ccccc1)C(=O)Nc1ccccc1Cl
  outcome: inactive

## CN(C)c1n/c(=N/c2ncn[nH]2)ss1
  outcome: inactive

## C=C(C)C12CC(C)C34OC(CCCCCCCCCCC)(OC1C3C1OC1(CO)C(O)C1(O)C(=O)C(C)=CC14C)O2 (centres undefined)
  outcome: active

## O=C(Nc1ccc(C2=NCCN2)cc1)c1ccc(C(=O)Nc2ccc(C3=NCCN3)cc2)c(Br)c1
  pEC50: 5.08
  pIC50: 4.68

## CC(C(=O)O)C(C)(C)C(=O)O (centres undefined)
  pEC50: < 3.70
  pIC50: < 3.70

## COc1cc(NS(C)(=O)=O)ccc1Nc1c2ccccc2nc2ccccc12
  outcome: inactive

## NCCCCN(CCCN)C(=O)OCc1ccccc1
  pEC50: < 3.70
  pIC50: < 3.70

## CCOC(=O)CNC(=O)C(C)NC(=O)C(NC(=O)CC(c1ncc[nH]1)c1ncc[nH]1)C(C)CC (centres undefined)
  pEC50: < 4.00
  pIC50: < 4.00

## Cc1ccc2nc3c(C)c(Cl)c(=O)cc-3sc2c1
  pEC50: < 4.72
  pIC50: 4.79

## CC(C)(C)c1cc2c(O)c(c1)C(c1ccccc1)c1cc(C(C)(C)C)cc(c1O)Cc1cc(C(C)(C)C)cc(c1O)C(c1ccccc1)c1cc(C(C)(C)C)cc(c1O)C2 (centres undefined)
  pEC50: < 4.30
  pIC50: < 4.30

## COc1cc2c(cc1OC)C(C(CBr)CBr)N(C1CCCC1)CC2 (centres undefined)
  pEC50: < 3.41
  pIC50: < 3.41

## S=c1nc(COc2ccc(Cl)cc2Cl)[nH][nH]1
  pEC50: < 4.17
  pIC50: 4.29

## Cc1nc2c(sc(=S)n2-c2ccccc2)c(=O)[nH]1
  pEC50: < 4.04
  pIC50: < 4.04

## CC1(C)OC2C(COCc3ccccc3)=CC(n3ccc(=O)[nH]c3=O)C2O1 (centres undefined)
  pEC50: < 3.70
  pIC50: < 3.70

## C=C1C(=O)OC2C3C(=C)[C@@H](OC(C)=O)CC3C(C)=CC(OC(=O)C(C)(OC(C)=O)C(C)OC(C)=O)[C@@H]12 (some centres undefined)
  pEC50: < 3.70
  pIC50: 4.99
